Data: paper PMC10544018 (Journal of Medicinal Chemistry, 2023)

How the values were obtained:
VCB protein = biological target: T1, VCB protein (Homo sapiens, UniProt P40337); experiment: Competitive fluorescence polarization (FP) binding assay, displacement of FAM-labeled HIF-1α peptide; details: for Kd: dissociation constant, determined by FP, mean ± S.E.M., back-calculated from IC50; for IC50: mean IC50 values obtained from the FP assay, read-out: IC50 ± S.E.M, FP assay
T1 construct: A plasmid containing pVHL54–213 with an N-terminal His6 tag; His6 (N, cleaved yes); made in house; host or cells: Escherichia coli BL21 (DE3)
Procedure: Binding of a ligand to the HIF binding site of VHL displaces a fluorescein-labeled, 19-mer HIF-1α oligopeptide, leading to a change in polarization of emitted light upon excitation of the competing fluorescent probe.
All components were dissolved from stock solutions using 100 mM Bis–Tris, 100 mM NaCl, 1 mM DTT, pH 7.0, to yield a final assay volume of 15 μL. DMSO was added as appropriate to ensure a final concentration of 2% (v/v). Control wells containing VCB and JC9 with no compound (zero displacement), or JC9, in the absence of protein (maximum displacement) were also included to allow for normalization. Percentage displacement values were obtained by normalization of controls and were plotted against log[compound]. The IC50 values were determined for each titration using non-linear regression analysis with Prism GraphPad (Table S1). Dissociation constants Kd for the compound–VCB interaction were back-calculated from the measured IC50 values by using a displacement binding model as described.[16],[64]

[1] = Log D7.4 measurement by chromatographic method; assay type: physicochemical; details: experimental distribution coefficient at pH 7.4; read-out: e log D7.4
Procedure: (§1) Both were experimentally obtained employing HPLC-based protocols.[39],[40] […] PPB values were determined in view of how they could impact future pharmacokinetic studies of compounds as VHL inhibitors, or once conjugated into bifunctional PROTACs, for which PPB can be a limiting factor.
The determination of the log D7.4 values was performed by a chromatographic method as described previously.[41],[62] […] Subsequently, the mean retention times (n = 2) of the analytes were taken to calculate their log D7.4 values.

human serum albumin = human serum albumin (Homo sapiens, UniProt P02768); experiment: PPB studies on HSA HPLC column; assay type: in vitro ADME; details: CHIRALPAK HSA HPLC column (human serum albumin); experimentally determined percentage of the compound bound to human serum albumin
Procedure: as §1
PPB was estimated by correlating the logarithmic retention times of the analytes on a […] HSA 50 × 3 mm, 5 μm column with the literature-known % PPB values (converted into log K values) of the following drugs: warfarin, ketoprofen, budesonide, nizatidine, indomethacin, acetylsalicylic acid, carbamazepine, piroxicam, nicardipine, and cimetidine.[63] Samples were dissolved in MeCN/DMSO 9:1 to achieve a final concentration of 0.5 mg/mL. The mobile phase A was 50 mM ammonium acetate adjusted to pH 7.4 with 10% NaOH, while mobile phase B was iPrOH. […] After injecting 3 μL of the sample, a linear gradient from 100% A to 30% iPrOH in 5.4 min was applied. From 5.4 to 18 min, 30% iPrOH was kept, followed by switching back to 100% A in 1.0 min and a re-equilibration time of 6 min.

| Structure (SMILES) | Kd (VCB protein) | IC50 (VCB protein) | chromatographic logD [1] | fraction unbound at 0.5 mg/mL (human serum albumin) |
| --- | --- | --- | --- | --- |
| Cc1ncsc1-c1cc2c(cc1F)[C@@H](NC(=O)[C@@H]1C[C@@H](O)CN1C(=O)[C@@H](NC(=O)C1(F)CC1)C(C)(C)C)CCC2 [Compound 37, (2S,4R)-N-((S)-7-Fluoro-6-(4-methylthiazol-5-yl)-1,2,3,4-tetrahydronaphthalen-1-yl)-1-((S)-2-(1-fluorocyclopropane-1-carboxamido)-3,3-dimethylbutanoyl)-4-hydroxypyrrolidine-2-carboxamide] | 1040 ± 240 nM | 4400 ± 1060 nM | 2.6 | 0.08 |
| Cc1ncsc1-c1ccc(CNC(=O)[C@@H]2C[C@@H](O)CN2C(=O)[C@@H](NC(=O)C2(C#N)CC2)C(C)(C)C)c2ncccc12 [Compound 23, (2S,4R)-1-((S)-2-(1-Cyanocyclopropane-1-carboxamido)-3,3-dimethylbutanoyl)-4-hydroxy-N-((5-(4-methylthiazol-5-yl)quinolin-8-yl)methyl)pyrrolidine-2-carboxamide] | 330 ± 93 nM | 1670 ± 375 nM | 1.7 | 0.12 |
| Cc1ncsc1-c1cc(F)c(CNC(=O)[C@@H]2C[C@@H](O)CN2C(=O)[C@@H](NC(=O)C2(C#N)CC2)C(C)(C)C)cc1F [Compound 16, (2S,4R)-1-((S)-2-(1-Cyanocyclopropane-1-carboxamido)-3,3-dimethylbutanoyl)-N-(2,5-difluoro-4-(4-methylthiazol-5-yl)benzyl)-4-hydroxypyrrolidine-2-carboxamide] | 281 ± 46 nM | 1440 ± 198 nM | 2 | 0.12 |
| Cc1ncsc1-c1ccc(CNC(=O)[C@@H]2C[C@@H](O)CN2C(=O)[C@@H](NC(=O)C2(C#N)CC2)C(C)(C)C)cc1Cl [Compound 9, (2S,4R)-N-(3-Chloro-4-(4-methylthiazol-5-yl)benzyl)-1-((S)-2-(1-cyanocyclopropane-1-carboxamido)-3,3-dimethylbutanoyl)-4-hydroxypyrrolidine-2-carboxamide] | 220 ± 11 nM | 1030 ± 127 nM | 2.1 | 0.09 |
| Cc1ncsc1-c1cc(F)c(CNC(=O)[C@@H]2C[C@@H](O)CN2C(=O)[C@@H](NC(=O)C2(C#N)CC2)C(C)(C)C)c(F)c1 [Compound 12, (2S,4R)-1-((S)-2-(1-Cyanocyclopropane-1-carboxamido)-3,3-dimethylbutanoyl)-N-(2,6-difluoro-4-(4-methylthiazol-5-yl)benzyl)-4-hydroxypyrrolidine-2-carboxamide] | 2130 ± 150 nM | 11000 ± 747 nM | 1.9 | 0.14 |
| COc1cc(CNC(=O)[C@@H]2C[C@@H](O)CN2C(=O)[C@@H](NC(=O)C2(C#N)CC2)C(C)(C)C)ccc1-c1scnc1C [Compound 7, (2S,4R)-1-((S)-2-(1-Cyanocyclopropane-1-carboxamido)-3,3-dimethylbutanoyl)-4-hydroxy-N-(3-methoxy-4-(4-methylthiazol-5-yl)benzyl)pyrrolidine-2-carboxamide] | 163 ± 22 nM | 742 ± 14 nM | 1.9 | 0.13 |

Further compounds by falling Kd (VCB protein), results first:

| Kd (VCB protein) | IC50 (VCB protein) | chromatographic logD [1] | fraction unbound at 0.5 mg/mL (human serum albumin) | Structure (SMILES) |
| --- | --- | --- | --- | --- |
| 8150 ± 680 nM | 42000 ± 1920 nM | 2.4 | 0.09 | Cc1ncsc1-c1cc(Cl)c(CNC(=O)[C@@H]2C[C@@H](O)CN2C(=O)[C@@H](NC(=O)C2(C#N)CC2)C(C)(C)C)c(Cl)c1 [Compound 13, (2S,4R)-1-((S)-2-(1-Cyanocyclopropane-1-carboxamido)-3,3-dimethylbutanoyl)-N-(2,6-dichloro-4-(4-methylthiazol-5-yl)benzyl)-4-hydroxypyrrolidine-2-carboxamide] |
| 6240 ± 620 nM | 32100 ± 2150 nM | 2 | 0.12 | COc1cc(-c2scnc2C)cc(OC)c1CNC(=O)[C@@H]1C[C@@H](O)CN1C(=O)[C@@H](NC(=O)C1(C#N)CC1)C(C)(C)C [Compound 11, (2S,4R)-1-((S)-2-(1-Cyanocyclopropane-1-carboxamido)-3,3-dimethylbutanoyl)-N-(2,6-dimethoxy-4-(4-methylthiazol-5-yl)benzyl)-4-hydroxypyrrolidine-2-carboxamide] |
| 297 ± 34 nM | 1360 ± 56 nM | 1.9 | 0.12 | Cc1ncsc1-c1ccc(CNC(=O)[C@@H]2C[C@@H](O)CN2C(=O)[C@@H](NC(=O)C2(C#N)CC2)C(C)(C)C)c(F)c1 [Compound 4, (2S,4R)-1-((S)-2-(1-Cyanocyclopropane-1-carboxamido)-3,3-dimethylbutanoyl)-N-(2-fluoro-4-(4-methylthiazol-5-yl)benzyl)-4-hydroxypyrrolidine-2-carboxamide] |
| 245 ± 20 nM | 1140 ± 131 nM | 2.2 | 0.09 | Cc1ncsc1-c1ccc(CNC(=O)[C@@H]2C[C@@H](O)CN2C(=O)[C@@H](NC(=O)C2(C#N)CC2)C(C)(C)C)c(Cl)c1 [Compound 5, (2S,4R)-N-(2-Chloro-4-(4-methylthiazol-5-yl)benzyl)-1-((S)-2-(1-cyanocyclopropane-1-carboxamido)-3,3-dimethylbutanoyl)-4-hydroxypyrrolidine-2-carboxamide] |
| 186 ± 40 nM | 718 ± 95 nM | 2.2 | 0.12 | Cc1ncsc1-c1ccc([C@H](C)NC(=O)[C@@H]2C[C@@H](O)CN2C(=O)[C@@H](NC(=O)C2(C#N)CC2)C(C)(C)C)cc1F [Compound 25, (2S,4R)-1-((S)-2-(1-Cyanocyclopropane-1-carboxamido)-3,3-dimethylbutanoyl)-N-((S)-1-(3-fluoro-4-(4-methylthiazol-5-yl)phenyl)ethyl)-4-hydroxypyrrolidine-2-carboxamide] |
| 183 ± 22 nM | 837 ± 35 nM | 1.9 | 0.12 | COc1cc(-c2scnc2C)ccc1CNC(=O)[C@@H]1C[C@@H](O)CN1C(=O)[C@@H](NC(=O)C1(C#N)CC1)C(C)(C)C [Compound 3, (2S,4R)-1-((S)-2-(1-Cyanocyclopropane-1-carboxamido)-3,3-dimethylbutanoyl)-4-hydroxy-N-(2-methoxy-4-(4-methylthiazol-5-yl)benzyl)pyrrolidine-2-carboxamide] |
| 149 ± 28 nM | 668 ± 33 nM | 2 | 0.1 | Cc1cc(-c2scnc2C)ccc1CNC(=O)[C@@H]1C[C@@H](O)CN1C(=O)[C@@H](NC(=O)C1(C#N)CC1)C(C)(C)C [Compound 2, (2S,4R)-1-((S)-2-(1-Cyanocyclopropane-1-carboxamido)-3,3-dimethylbutanoyl)-4-hydroxy-N-(2-methyl-4-(4-methylthiazol-5-yl)benzyl)pyrrolidine-2-carboxamide] |
| 141 ± 8 nM | 727 ± 7 nM | 1.9 | 0.11 | Cc1ncsc1-c1ccc(CNC(=O)[C@@H]2C[C@@H](O)CN2C(=O)[C@@H](NC(=O)C2(C#N)CC2)C(C)(C)C)c(O)c1F [Compound 20, (2S,4R)-1-((S)-2-(1-Cyanocyclopropane-1-carboxamido)-3,3-dimethylbutanoyl)-N-(3-fluoro-2-hydroxy-4-(4-methylthiazol-5-yl)benzyl)-4-hydroxypyrrolidine-2-carboxamide] |
| 97 ± 11 nM | 444 ± 18 nM | 1.9 | 0.12 | Cc1ncsc1-c1ccc(CNC(=O)[C@@H]2C[C@@H](O)CN2C(=O)[C@@H](NC(=O)C2(C#N)CC2)C(C)(C)C)cc1F [Compound 8, (2S,4R)-1-((S)-2-(1-Cyanocyclopropane-1-carboxamido)-3,3-dimethylbutanoyl)-N-(3-fluoro-4-(4-methylthiazol-5-yl)benzyl)-4-hydroxypyrrolidine-2-carboxamide] |
| 86 ± 20 nM | 329 ± 51 nM | 2.3 | 0.12 | Cc1cc(-c2scnc2C)ccc1[C@H](C)NC(=O)[C@@H]1C[C@@H](O)CN1C(=O)[C@@H](NC(=O)C1(C#N)CC1)C(C)(C)C [Compound 24, (2S,4R)-1-((S)-2-(1-Cyanocyclopropane-1-carboxamido)-3,3-dimethylbutanoyl)-4-hydroxy-N-((S)-1-(2-methyl-4-(4-methylthiazol-5-yl)phenyl)ethyl)pyrrolidine-2-carboxamide] |
